Laboratory results as given in patent US10781236B2, “Bacteriocin composition and method” (priority 2015, dated 2020).

Columns and labels:
[1] = system: Clostridium bifermentans LMGT 2519; assay: Relative MIC, inhibitory spectrum; format: cell-based; conditions: relative to L. lactis IL 1403 = 1
L. plantarum LMGT 2352 = assay: Relative MIC, inhibitory spectrum; format: cell-based, Lactobacillus plantarum; conditions: relative to L. lactis IL 1403 = 1
E. faecalis LMGT 2333 = assay: Relative MIC, inhibitory spectrum; format: cell-based, Enterococcus faecalis; conditions: relative to L. lactis IL 1403 = 1
P. pentosaceus LMGT 2366 = assay: Relative MIC, inhibitory spectrum; format: cell-based, Pediococcus pentosaceus; conditions: relative to L. lactis IL 1403 = 1
L. lactis LMGT 3419 = assay: Relative MIC, inhibitory spectrum; format: cell-based, Lactococcus lactis; conditions: relative to L. lactis IL 1403 = 1
L. innocua LMGT 2785 = assay: Relative MIC, inhibitory spectrum; format: cell-based, Listeria innocua; conditions: relative to L. lactis IL 1403 = 1
[2] = system: L. monocytogenes LMGT 2650; assay: Relative MIC, inhibitory spectrum; format: cell-based, Listeria monocytogenes; conditions: relative to L. lactis IL 1403 = 1
E. faecium = assay: Antimicrobial activity against problematic bacteria; format: cell-based, Enterococcus faecium; conditions: food sources
Protocol: (§1) To screen for bacteriocin producers with broad inhibition spectra (BIS), Lactococcus lactis, Lactobacillus sakei, Lactobacillus plantarum, Listeria innocua, and Staphylococcus aureus from the food and dairy environment were used as indicators in the first round of screening. The antimicrobial screening was performed using the agar diffusion bioassay as previously described (Holo et al., 1991, J. Bacteriol., 173, p 3879-3887). Briefly, indicator cells from overnight cultures were diluted 100-fold in 5 mL of BHI soft agar and plated out as a lawn on BHI agar plates. Potential bacteriocin producers at volumes of 3 μL were spotted on the indicator lawn and then incubated at appropriate temperatures for 24 h for cell growth and cell inhibition. Inhibition was detected as clear zones around the spotted cells.
(§2) As the antimicrobial activity of garvicin KS is relatively broad, we explored further its potential to kill a larger panel of important pathogens. The list contained 147 problematic or potentially problematic bacteria of species belonging to Listeria, Staphylococcus, Streptococcus and Enterococcus, isolated from food and clinical sources. In this assay, we compared the antimicrobial activity of garvicin KS with that of garvicin ML and nisin, the last one being known as a broad inhibition-spectrum bacteriocin (AIKhatib et al., 2014, PLOS One 9:e102246 doi:10.1371/joumal.pone.0102246). […]

S. aureus LMGT 3265 = assay: Relative MIC, inhibitory spectrum; format: cell-based, Staphylococcus aureus; conditions: relative to L. lactis IL 1403 = 1
E. faecium LMGT 2772 = assay: Relative MIC, inhibitory spectrum; format: cell-based, Enterococcus faecium; conditions: relative to L. lactis IL 1403 = 1
L. plantarum LMGT 2357 = assay: Relative MIC, inhibitory spectrum; format: cell-based, Lactobacillus plantarum; conditions: relative to L. lactis IL 1403 = 1
S. pneumonia = assay: Antimicrobial activity against problematic bacteria; format: cell-based, Streptococcus pneumonia
Protocol: as §1, §2

[3] = system: C. tyrobutyricum LMGT 2524; assay: Relative MIC, inhibitory spectrum; format: cell-based, Clostridium tyrobutyricum; conditions: relative to L. lactis IL 1403 = 1
L. Sakei LMGT 2361 = assay: Relative MIC, inhibitory spectrum; format: cell-based, Lactobacillus sakei; conditions: relative to L. lactis IL 1403 = 1
L. innocua = assay: Antimicrobial activity against problematic bacteria; format: cell-based, Listeria innocua; conditions: food sources
Protocol: as §1, §2

L. lactis LMGT 2130 = assay: Relative MIC, inhibitory spectrum; format: cell-based, Lactococcus lactis; conditions: relative to L. lactis IL 1403 = 1
L. Sakei LMGT 2380 = assay: Relative MIC, inhibitory spectrum; format: cell-based, Lactobacillus sakei; conditions: relative to L. lactis IL 1403 = 1
L. seelingeri = assay: Antimicrobial activity against problematic bacteria; format: cell-based, Listeria seelingeri; conditions: food sources
Protocol: as §1, §2

L. plantarum LMGT 2358 = assay: Relative MIC, inhibitory spectrum; format: cell-based, Lactobacillus plantarum; conditions: relative to L. lactis IL 1403 = 1
L. curvatus LMGT 2371 = assay: Relative MIC, inhibitory spectrum; format: cell-based, Lactobacillus curvatus; conditions: relative to L. lactis IL 1403 = 1
L. grayi = assay: Antimicrobial activity against problematic bacteria; format: cell-based, Listeria grayi; conditions: food sources
Protocol: as §1, §2

L. Sakei LMGT 2799 = assay: Relative MIC, inhibitory spectrum; format: cell-based, Lactobacillus sakei; conditions: relative to L. lactis IL 1403 = 1
E. faecium LMGT 2763 = assay: Relative MIC, inhibitory spectrum; format: cell-based, Enterococcus faecium; conditions: relative to L. lactis IL 1403 = 1
E. faecium LMGT 2783 = assay: Relative MIC, inhibitory spectrum; format: cell-based, Enterococcus faecium; conditions: relative to L. lactis IL 1403 = 1
L. plantarum LMGT 2003 = assay: Relative MIC, inhibitory spectrum; format: cell-based, Lactobacillus plantarum; conditions: relative to L. lactis IL 1403 = 1
L. curvatus LMGT 2715 = assay: Relative MIC, inhibitory spectrum; format: cell-based, Lactobacillus curvatus; conditions: relative to L. lactis IL 1403 = 1
Strep. Thermophylus = assay: Antimicrobial activity against problematic bacteria; format: cell-based, Streptococcus thermophylus; conditions: food sources
Protocol: as §1, §2

[4] = system: C. tyrobutyricum LMGT 2511; assay: Relative MIC, inhibitory spectrum; format: cell-based, Clostridium tyrobutyricum; conditions: relative to L. lactis IL 1403 = 1
P. pentosaceus LMGT 2001 = assay: Relative MIC, inhibitory spectrum; format: cell-based, Pediococcus pentosaceus; conditions: relative to L. lactis IL 1403 = 1
L. ivanovii LMGT 2813 = assay: Relative MIC, inhibitory spectrum; format: cell-based, Listeria ivanovii; conditions: relative to L. lactis IL 1403 = 1
S. agalactia = assay: Antimicrobial activity against problematic bacteria; format: cell-based, Streptococcus agalactia; conditions: clinical sources
Protocol: as §1, §2

[5] = system: Pediococcus acidilactici LMGT 2002; assay: Relative MIC, inhibitory spectrum; format: cell-based; conditions: relative to L. lactis IL 1403 = 1
L. lactis IL1403 = assay: Relative MIC, inhibitory spectrum; format: cell-based, Lactococcus lactis; conditions: the reference indicator, referred to as 1
[6] = system: L. monocytogenes LMGT 2604; assay: Relative MIC, inhibitory spectrum; format: cell-based, Listeria monocytogenes; conditions: relative to L. lactis IL 1403 = 1
[7] = system: Bacillus cereus LMGT 2805; assay: Relative MIC, inhibitory spectrum; format: cell-based; conditions: relative to L. lactis IL 1403 = 1
L. plantarum LMGT 2379 = assay: Relative MIC, inhibitory spectrum; format: cell-based, Lactobacillus plantarum; conditions: relative to L. lactis IL 1403 = 1

Substance: garvicin ML
- Relative MIC value [1]: 16-32
- Relative MIC value (L. plantarum LMGT 2352): 16
- Relative MIC value (E. faecalis LMGT 2333): 64-128
- Relative MIC value (P. pentosaceus LMGT 2366): 64
- Relative MIC value (L. lactis LMGT 3419): ≤0.25
- Relative MIC value (L. innocua LMGT 2785): 32
- Relative MIC value [2]: 64
- number of sensitive strains / number of strains tested (E. faecium): 7/7
- Relative MIC value (S. aureus LMGT 3265): ≥512
- Relative MIC value (E. faecium LMGT 2772): 32
- Relative MIC value (L. plantarum LMGT 2357): 64
- number of sensitive strains / number of strains tested (S. pneumonia; clinical sources): 1/1
- number of sensitive strains / number of strains tested (S. pneumonia; food sources): 1/1
- Relative MIC value [3]: 32-64
- Relative MIC value (L. Sakei LMGT 2361): 32
- number of sensitive strains / number of strains tested (L. innocua): 1/6
- Relative MIC value (L. lactis LMGT 2130): 8
- Relative MIC value (L. Sakei LMGT 2380): 32
- number of sensitive strains / number of strains tested (L. seelingeri): 0/1
- Relative MIC value (L. plantarum LMGT 2358): 512
- Relative MIC value (L. curvatus LMGT 2371): 32
- number of sensitive strains / number of strains tested (L. grayi): 0/2
- Relative MIC value (L. Sakei LMGT 2799): 8-16
- Relative MIC value (E. faecium LMGT 2763): 32-64
- Relative MIC value (E. faecium LMGT 2783): 64
- Relative MIC value (L. plantarum LMGT 2003): 64
- Relative MIC value (L. curvatus LMGT 2715): 32
- number of sensitive strains / number of strains tested (Strep. Thermophylus): 8/8
- Relative MIC value [4]: 32
- Relative MIC value (P. pentosaceus LMGT 2001): 16-32
- Relative MIC value (L. ivanovii LMGT 2813): 32
- number of sensitive strains / number of strains tested (S. agalactia): 1/1
- Relative MIC value [5]: 32
- Relative MIC value (L. lactis IL1403): 1
- Relative MIC value [6]: 32
- Relative MIC value [7]: 64
- Relative MIC value (L. plantarum LMGT 2379): 32
